5 compounds from ChEMBL document CHEMBL4418493, “N-hydroxyformamide compounds and compositions comprising them for use as BMP1, TLL1 and/or TLL2 inhibitors” (2018) can be followed below.

The nature of series [1]: Reduction in PICP levels in human cardiac fibroblasts incubated for 24 to 48 hrs by ELISA. It is filed as functional. (In general: ELISA stands for enzyme-linked immunosorbent assay.)
The nature of series [2]: Reduction in mature collagen deposition levels in human cardiac fibroblasts incubated for 24 to 48 hrs by immunostaining based assay. It is filed as functional.
The nature of series [3]: Drug metabolism in heparinized pooled human plasma at pH 7.5 assessed as formation of ((2-ethoxy-4-(5-((((R)-2-((R)-1-(N-hydroxyformamido)propyl)heptanamido)methyl)carbamoyl)furan-2-yl)benzamido)methyl)phosphonic acid at 100 to 2000 ng/ml incubated up to 4 or 24 hrs by LC-MS/MS analysis. In kind it is ADME, cell-free. Conditions: pH 7.5, 24 h.
The nature of series [4]: Drug metabolism in heparinized pooled human plasma at pH 7.5 assessed as formation of (((3-ethoxy-5-(5-((((R)-2-((R)-1-(N-hydroxyformamido)propyl)heptanamido)methyl)carbamoyl)furan-2-yl)phenyl)(hydroxy)phosphoryl)oxy)methyl isopropyl carbonate at 100 to 2000 ng/ml incubated up to 4 or 24 hrs by LC-MS/MS analysis. Conditions: pH 7.5, 24 h. In kind it is ADME, cell-free.

Take `CCCCC[C@@H](C(=O)NCNC(=O)c1ccc(-c2ccc(C(=O)NCP(=O)(O)O)c(OCC)c2)o1)[C@@H](CC)N(C=O)OC(=O)c1ccc(OC)cc1`: the IC50 (in general, the concentration that gives 50% inhibition) in series [1] is < 3.98 µM; in series [2], < 1 µM. Besides, the Drug metabolism entry in series [3] was “Metabolite_Detected”.
As to `CCCCC[C@@H](C(=O)NCNC(=O)c1ccc(-c2ccc(C(=O)NCP(=O)(O)O)c(OCC)c2)o1)[C@@H](CC)N(C=O)OC(=O)c1ccc(CN2CCOCC2)cc1C.O=C(O)C(F)(F)F`, the IC50 in series [1] is < 3.98 µM. In addition, the Drug metabolism entry in series [3] is listed as “Metabolite_Detected”.
Taken in the same sequence, the figures for `CCCCC[C@@H](C(=O)NCNC(=O)c1ccc(-c2ccc(C(=O)NCP(=O)(O)O)c(OCC)c2)o1)[C@@H](CC)N(C=O)OC(=O)c1ccc(OC)cc1C` were < 3.98 µM and “Metabolite_Detected”.
The corresponding values for `CCCCC[C@@H](C(=O)NCNC(=O)c1ccc(-c2ccc(C(=O)NCP(=O)(O)O)c(OCC)c2)o1)[C@@H](CC)N(C=O)OC(=O)c1ccccc1` are < 3.98 µM and “Metabolite_Detected”.
Consider `CCCCC[C@@H](C(=O)NCNC(=O)c1ccc(-c2cc(OCC)cc(P(=O)(OCOC(=O)OC(C)C)OCOC(=O)OC(C)C)c2)o1)[C@@H](CC)N(O)C=O`, for which, in series [4], the Drug metabolism result is given as “Metabolite_Detected”.
